Results reported in patent US12428403B2, “N-(heterocyclyl and heterocyclylalkyl)-3-benzylpyridin-2-amine derivatives as SSTR4 agonists” (Takeda Pharmaceutical Company Limited, priority 2020, dated 2025).

Each molecule was assayed against SSTR4 (Homo sapiens, UniProt P31391) (assay: cell-based).
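Further: CHO-K1 cells overexpressing SSTR4, reduction of forskolin-driven cAMP after 30 min compound exposure at room temperature, cAMP read by HTRF LANCE Ultra kit.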
Procedure: This cell-based assay measures the ability of compounds to inhibit forskolin stimulated cAMP in CHO-K1 cells overexpressing SSTR4. CHO-K1 cells overexpressing SSTR4 (CHO-SSTR4) are purchased from DiscoveRx (product code 95-0059C2). The CHO-SSTR4 cells are maintained in F12K media with 10% Fetal Bovine Serum (Hyclone), 1% Pen/Strep (Life Technologies), and 800 μg/mL G418 (Life Technologies). To perform the assay, 3000 cells are plated per well in white 384-well plate (Corning 3570) in 50 complete media and the cells are allowed to attach for 16 hours in a 37° C., 5% CO2 incubator. The next day, the culture media is removed from the cells and the cells are washed (added then removed) with Krebs Ringer Buffer (ZenBio, KRB-1000 mL). Test compounds are suspended in DMSO and diluted in stimulation buffer: Krebs Ringer Buffer plus 0.5% BSA (Roche), 300 μM IBMX (Sigma), and 350 nM forskolin (Sigma). The cells are incubated in 10 μL compound/stimulation buffer for 30 minutes at room temperature. Cellular cAMP levels are detected with a HTRF LANCE Ultra cAMP kit (Perkin Elmer, catalog number TRF0264).
The assay is performed in accordance with the manufacturer's instructions. Five μL of diluted Eu-W8044 labeled streptavidin (dilution: 1:50 in cAMP Detection Buffer) is added to each well. Then 5 μL of diluted biotin cAMP (dilution: 1:150 in cAMP Detection Buffer) is added to each well. The plates are covered and allowed to incubate for 60 minutes at room temperature on a shaker. HTRF (665 nm/615 nm) is read on a Perkin Elmer ENVISION plate reader. The pEC50 values are generated using Activity Base for Screening Data Management.

SSTR4, sequence (P31391 whole entry): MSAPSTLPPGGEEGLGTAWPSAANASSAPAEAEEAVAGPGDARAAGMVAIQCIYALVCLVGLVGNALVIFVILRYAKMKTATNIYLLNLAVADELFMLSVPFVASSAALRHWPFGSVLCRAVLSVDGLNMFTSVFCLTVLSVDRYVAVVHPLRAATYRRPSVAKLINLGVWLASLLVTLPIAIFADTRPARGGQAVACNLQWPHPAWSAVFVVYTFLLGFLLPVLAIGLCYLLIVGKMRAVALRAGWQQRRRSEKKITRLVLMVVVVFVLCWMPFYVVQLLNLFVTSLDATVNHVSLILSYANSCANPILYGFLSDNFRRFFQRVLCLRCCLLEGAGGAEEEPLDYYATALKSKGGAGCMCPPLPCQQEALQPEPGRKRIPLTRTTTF

Row | Compound | EC50 [nM]
1 | CC1CN(C)CCC1Nc1ncc(C(F)(F)F)nc1Cc1ccc(F)cc1 (mixture of isomers) [Example 91, N-(1,3-dimethylpiperidin-4-yl)-3-(4-fluorobenzyl)-5-(trifluoromethyl)pyrazin-2-amine] | 661
2 | CC1CN(C)CCC1Nc1ncc(C(N)=O)cc1Cc1ccc(F)cc1 (mixture of isomers) [Example 102, 6-((1,3-dimethylpiperidin-4-yl)amino)-5-(4-fluorobenzyl)nicotinamide] | 398
3 | CC[C@@H]1CN(C)CC[C@H]1Nc1ncc(C(=O)NC)nc1Cc1ccc(F)cc1 (racemic) [Example 36, 5-((trans-3-ethyl-1-methylpiperidin-4-yl)amino)-6-(4-fluorobenzyl)-N-methylpyrazine-2-carboxamide] | 224
4 | CC[C@@H]1CN(C)CC[C@H]1Nc1ncc(C(F)(F)F)nc1Cc1ccc(F)cc1 (racemic) [Example 95, N-(trans-3-ethyl-1-methylpiperidin-4-yl)-3-(4-fluorobenzyl)-5-(trifluoromethyl)pyrazin-2-amine] | 741
5 | Fc1ccc(Cc2nccnc2N[C@@H]2CCNC[C@H]2F)cc1 (racemic) [Example 115, 3-(4-fluorobenzyl)-N-(trans-3-fluoropiperidin-4-yl)pyrazin-2-amine] | 219
6 | Cc1cccc2nc(NCCN3CCC3)c(Cc3ccccc3)nc12 (single isomer, unassigned) [Example 3, N-(2-(azetidin-1-yl)ethyl)-3-benzyl-5-methylquinoxalin-2-amine] | 457
7 | COc1cccc(Cc2nc3c(C)cccc3nc2NCCN2CCC2)c1 (single isomer, unassigned) [Example 5, N-(2-(azetidin-1-yl)ethyl)-3-(3-methoxybenzyl)-5-methylquinoxalin-2-amine] | 331
8 | C[C@@H](c1ccc(F)cc1)c1nc(C(N)=O)cnc1NCCN1CCCC1 (single isomer, unassigned) [Example 20] | 708
9 | C[C@@H](c1ccc(F)cc1)c1nc(C(N)=O)cnc1N[C@@H]1CCN(C)C1 (single isomer, unassigned) [Example 31] | 331
10 | CNC(=O)c1cnc(N[C@@H]2CCN(C)C2)c([C@@H](C)c2ccc(F)cc2)n1 (single isomer, unassigned) [Example 34] | 537
11 | CNC(=O)c1cnc(N[C@@H]2CCN(C)C2)c([C@H](C)c2ccc(F)cc2)n1 (single isomer, unassigned) [Example 35] | 1200
12 | C[C@H]1C[C@H](Nc2nccnc2Cc2ccc(F)cc2)CCN1C (single isomer, unassigned) [Example 113, N-(trans-1,2-dimethylpiperidin-4-yl)-3-(4-fluorobenzyl)pyrazin-2-amine] | 813
13 | C[C@H]1C[C@@H](Nc2nccnc2Cc2ccc(F)cc2)CCN1C (single isomer, unassigned) [Example 114, N-(cis-1,2-dimethylpiperidin-4-yl)-3-(4-fluorobenzyl)pyrazin-2-amine] | 575
14 | C[C@@H](c1ccc(F)cc1)c1nccnc1NCCN1CCCC1 (single isomer, unassigned) [Example 122] | 575
15 | Cc1nnc([C@@H](C)c2ccc(F)cc2)c(N[C@@H]2CCN(C)C2)n1 (single isomer, unassigned) [Example 142] | 120
16 | Cc1nnc([C@@H](C)c2ccc(F)cc2)c(N[C@H]2CCN(C)C2)n1 (single isomer, unassigned) [Example 147] | 224

Row | Compound | EC50 [nM]
17 | Cc1nnc([C@@H](C)c2ccccc2)c(N[C@@H]2CCN(C)C2)n1 (single isomer, unassigned) [Example 150] | 363
18 | Cc1nnc([C@H](C)c2ccccc2)c(N[C@H]2CCN(C)C2)n1 (single isomer, unassigned) [Example 151] | 316
19 | c1ccc(Cc2nc3ccccc3nc2NCCN2CCCC2)cc1 [Example 1, 3-benzyl-N-(2-(pyrrolidin-1-yl)ethyl)quinoxalin-2-amine] | 166
20 | Cc1cccc(Cc2cc3cccc(C)c3nc2NCCN2CCCC2)c1 [Example 7, 8-methyl-3-(3-methylbenzyl)-N-(2-(pyrrolidin-1-yl)ethyl)quinolin-2-amine] | 661
21 | Cc1nc(Cc2ccc(F)cc2)c(NC2CCN(C)CC2)nc1C [Example 79, 3-(4-fluorobenzyl)-5,6-dimethyl-N-(1-methylpiperidin-4-yl)pyrazin-2-amine] | 229
22 | Cc1nc(Cc2ccc(F)cc2)c(N[C@@H]2CCN(C)C2)nc1C [Example 81, (R)-3-(4-fluorobenzyl)-5,6-dimethyl-N-(1-methylpyrrolidin-3-yl)pyrazin-2-amine] | 240
23 | Cc1cccc(Cc2nc(C)c(C)nc2NC2CCN(C)CC2)c1 [Example 82, 5,6-dimethyl-3-(3-methylbenzyl)-N-(1-methylpiperidin-4-yl)pyrazin-2-amine] | 107
24 | CC1CN(C)CCC1Nc1nc(C(F)(F)F)cnc1Cc1ccc(F)cc1 (centres unmarked) [Example 92, N-(1,3-dimethylpiperidin-4-yl)-3-(4-fluorobenzyl)-6-(trifluoromethyl)pyrazin-2-amine] | 115
25 | CC(c1ccc(F)cc1)c1ncc(C(F)(F)F)nc1NCCN1CCCC1 (centres unmarked) [Example 94, 3-(1-(4-fluorophenyl)ethyl)-N-(2-(pyrrolidin-1-yl)ethyl)-6-(trifluoromethyl)pyrazin-2-amine] | 151
26 | CN(C)C(=O)c1cnc(NCCN2CCCC2)c(Cc2ccc(F)cc2)c1 [Example 99, 5-(4-fluorobenzyl)-N,N-dimethyl-6-((2-(pyrrolidin-1-yl)ethyl)amino)nicotinamide] | 107
27 | NC(=O)c1cnc(NCCN2CCCC2)c(Cc2ccc(F)cc2)c1 [Example 100, 5-(4-fluorobenzyl)-6-((2-(pyrrolidin-1-yl)ethyl)amino)nicotinamide] | 95.5
28 | CNC(=O)c1cnc(NCCN2CCCC2)c(Cc2ccc(F)cc2)c1 [Example 101] | 166
29 | CN1CCCC1CNc1nccnc1Cc1ccc(F)cc1 (centres unmarked) [Example 109, 3-(4-fluorobenzyl)-N-((1-methylpyrrolidin-2-yl)methyl)pyrazin-2-amine] | 501
30 | CN1CCC1CNc1nccnc1Cc1ccc(F)cc1 (centres unmarked) [Example 110, 3-(4-fluorobenzyl)-N-((1-methylazetidin-2-yl)methyl)pyrazin-2-amine] | 2040
31 | CN1CCCCC1CNc1nccnc1Cc1ccc(F)cc1 (centres unmarked) [Example 112, 3-(4-fluorobenzyl)-N-((1-methylpiperidin-2-yl)methyl)pyrazin-2-amine] | 550
32 | CC(c1ccc(F)cc1)c1nccnc1NCCN1CCC(F)C1 (centres unmarked) [Example 117, 3-(1-(4-fluorophenyl)ethyl)-N-(2-(3-fluoropyrrolidin-1-yl)ethyl)pyrazin-2-amine] | 224

The next molecules have a lower EC50 than those just listed; values first:

Row | EC50 [nM] | Compound
33 | 47.9 | Cc1nc(N[C@@H]2CCN(C)C[C@H]2C)c(Cc2ccc(F)cc2)nc1C(=O)N(C)C (racemic) [Example 47, 5-((trans-1,3-dimethylpiperidin-4-yl)amino)-6-(4-fluorobenzyl)-N,N,3-trimethylpyrazine-2-carboxamide]
34 | 67.6 | Cc1cccc2nc(Cc3ccccc3)c(NCCN3CCC3)nc12 (single isomer, unassigned) [Example 2, N-(2-(azetidin-1-yl)ethyl)-3-benzyl-8-methylquinoxalin-2-amine]
35 | 81.3 | C[C@H](c1ccc(F)cc1)c1nc(C(=O)NC2CCC2)cnc1NCCN1CCCC1 [Example 9, (R)-N-cyclobutyl-6-(1-(4-fluorophenyl)ethyl)-5-((2-(pyrrolidin-1-yl)ethyl)amino)pyrazine-2-carboxamide]
36 | 13.8 | Cc1nc(NCCN2CCCC2)c(C(C)c2ccc(F)cc2)nc1C(=O)O (centres unmarked) [Example 55]
37 | 7.59 | CO[C@H]1C[C@@H](NC(=O)c2nc(C(C)c3ccc(F)cc3)c(NCCN3CCCC3)nc2C)C1 (stereo partly drawn) [Example 56, 6-(1-(4-fluorophenyl)ethyl)-N-(cis-3-methoxycyclobutyl)-3-methyl-5-((2-(pyrrolidin-1-yl)ethyl)amino)pyrazine-2-carboxamide]
38 | 40.7 | Cc1nc(NCCN2CCCC2)c(C(C)c2ccc(F)cc2)nc1C(=O)NC1CCCC1 (centres unmarked) [Example 57, N-cyclopentyl-6-(1-(4-fluorophenyl)ethyl)-3-methyl-5-((2-(pyrrolidin-1-yl)ethyl)amino)pyrazine-2-carboxamide]
39 | 7.76 | Cc1nc(NCCN2CCCC2)c(C(C)c2ccc(F)cc2)nc1C(=O)N[C@H]1C[C@H](F)C1 (stereo partly drawn) [Example 76, N-(trans-3-fluorocyclobutyl)-6-(1-(4-fluorophenyl)ethyl)-3-methyl-5-((2-(pyrrolidin-1-yl)ethyl)amino)pyrazine-2-carboxamide]
40 | 19.1 | Cc1nc(Cc2ccc(F)cc2)c(NCCN2CCCC2)nc1C [Example 80, 3-(4-fluorobenzyl)-5,6-dimethyl-N-(2-(pyrrolidin-1-yl)ethyl)pyrazin-2-amine]
41 | 7.76 | Cc1cccc(Cc2nc(C)c(C)nc2NCCN2CCCC2)c1 [Example 83, 5,6-dimethyl-3-(3-methylbenzyl)-N-(2-(pyrrolidin-1-yl)ethyl)pyrazin-2-amine]
42 | 45.7 | Cc1cccc(Cc2nc(C)c(C)nc2N[C@@H]2CCN(C)C2)c1 [Example 84, (R)-5,6-dimethyl-3-(3-methylbenzyl)-N-(1-methylpyrrolidin-3-yl)pyrazin-2-amine]
43 | 79.4 | Cc1cnc(NCCN2CCCC2)c(C(C)c2ccc(F)cc2)n1 (centres unmarked) [Example 86, 3-(1-(4-fluorophenyl)ethyl)-5-methyl-N-(2-(pyrrolidin-1-yl)ethyl)pyrazin-2-amine]
44 | 15.8 | CCc1cnc(Cc2ccccc2)c(NCCN2CCC2)n1 [Example 89, N-(2-(azetidin-1-yl)ethyl)-3-benzyl-6-ethylpyrazin-2-amine]
45 | 77.6 | Fc1ccc(Cc2ncc(C(F)(F)F)nc2NCCN2CCCC2)cc1 [Example 93, 3-(4-fluorobenzyl)-N-(2-(pyrrolidin-1-yl)ethyl)-6-(trifluoromethyl)pyrazin-2-amine]
46 | 36.3 | Cc1cccc(Cc2nc(C#N)c(C)nc2N[C@@H]2CCN(C)C2)c1 [Example 97, (R)-3-methyl-6-(3-methylbenzyl)-5-((1-methylpyrrolidin-3-yl)amino)pyrazine-2-carbonitrile]
47 | 77.6 | COc1cccc(Cc2nc(C#N)c(C)nc2N[C@@H]2CCN(C)C2)c1 [Example 98, (R)-6-(3-methoxybenzyl)-3-methyl-5-((1-methylpyrrolidin-3-yl)amino)pyrazine-2-carbonitrile]
